Laboratory results: ChEMBL document CHEMBL1132822, “2,4,5-Trisubstituted imidazoles: novel nontoxic modulators of P-glycoprotein mediated multidrug resistance. Part 2” (Bioorg Med Chem Lett, 2000)

Assays:
[1] = target: ATP-dependent translocase ABCB1 (Homo sapiens, UniProt P08183); experiment: Modulation of Pgp (P-glycoprotein) mediated multidrug resistance in CEM / VLB 1000 cell line; type: functional, cell-based, CCRF-CEM; settings: read-out: ED50 (the source's name)
[2] = (§1) Oral bioavailability in dog (dose 10 mg/kg); type: ADME, organism-based, Canis lupus familiaris; settings: in vivo
[3] = Half life in Dog plasma at a dosage 5 mg/kg after intravenous administration; type: ADME, organism-based, Canis lupus familiaris; design: dose 5 mg/kg, route intravenous
[4] = test system: Canis familiaris; experiment: as §1; type: functional, organism-based; settings: Canis lupus familiaris
[5] = test system: Homo sapiens; experiment: Compound concentration in plasma of healthy human (male) after 3-4h of 400 mg dose of compound given orally; type: functional

Sequence of ATP-dependent translocase ABCB1 (P08183 whole entry): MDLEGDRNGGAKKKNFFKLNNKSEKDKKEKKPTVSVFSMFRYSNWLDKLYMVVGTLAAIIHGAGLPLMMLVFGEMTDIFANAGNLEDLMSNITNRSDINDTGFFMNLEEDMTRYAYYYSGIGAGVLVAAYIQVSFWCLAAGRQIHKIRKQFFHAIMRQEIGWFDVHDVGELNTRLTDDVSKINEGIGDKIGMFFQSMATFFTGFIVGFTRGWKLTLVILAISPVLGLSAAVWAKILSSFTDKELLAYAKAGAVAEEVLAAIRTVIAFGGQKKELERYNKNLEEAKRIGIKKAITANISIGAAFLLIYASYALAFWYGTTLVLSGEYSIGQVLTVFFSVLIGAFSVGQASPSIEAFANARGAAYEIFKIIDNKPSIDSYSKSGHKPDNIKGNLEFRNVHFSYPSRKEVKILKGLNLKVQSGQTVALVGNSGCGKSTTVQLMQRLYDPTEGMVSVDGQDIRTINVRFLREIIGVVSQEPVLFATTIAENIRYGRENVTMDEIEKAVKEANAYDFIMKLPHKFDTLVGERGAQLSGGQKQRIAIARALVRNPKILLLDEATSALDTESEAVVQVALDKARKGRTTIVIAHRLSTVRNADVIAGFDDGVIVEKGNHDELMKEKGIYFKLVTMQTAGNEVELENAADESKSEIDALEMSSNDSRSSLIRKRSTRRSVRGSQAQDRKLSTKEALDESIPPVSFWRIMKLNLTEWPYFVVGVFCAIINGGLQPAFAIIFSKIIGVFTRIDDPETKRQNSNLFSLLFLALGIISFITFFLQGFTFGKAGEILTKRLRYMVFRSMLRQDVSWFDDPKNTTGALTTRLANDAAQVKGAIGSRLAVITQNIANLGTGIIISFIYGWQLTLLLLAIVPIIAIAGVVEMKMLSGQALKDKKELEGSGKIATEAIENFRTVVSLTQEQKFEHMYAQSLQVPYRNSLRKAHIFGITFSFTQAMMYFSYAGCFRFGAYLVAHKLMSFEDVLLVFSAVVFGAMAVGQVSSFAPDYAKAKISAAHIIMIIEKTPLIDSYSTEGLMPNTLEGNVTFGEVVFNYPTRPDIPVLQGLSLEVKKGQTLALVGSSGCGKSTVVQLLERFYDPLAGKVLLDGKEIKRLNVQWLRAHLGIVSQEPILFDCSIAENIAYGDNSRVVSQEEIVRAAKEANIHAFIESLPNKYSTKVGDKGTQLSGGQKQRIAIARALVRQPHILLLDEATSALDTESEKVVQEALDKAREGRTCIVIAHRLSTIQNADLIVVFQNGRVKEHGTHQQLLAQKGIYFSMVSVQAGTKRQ

Structure (SMILES) | EC50 [1] [nM] | other results
CNc1ccc(-c2[nH]c(-c3ccc(/C=C/C(=O)OC)cc3)nc2-c2ccc(N(C)C)cc2)cc1 | 130 | –
CCCN(CCC)c1ccc(-c2[nH]c(-c3ccc(/C=C/C(=O)OC)cc3)nc2-c2ccc(NC)cc2)cc1 | 180 | –
CCOC/C=C/c1ccc(-c2nc(-c3ccc(N(C)C)cc3)c(-c3ccc(N(C)C)cc3)[nH]2)cc1 | 80 | bioavailability [2]: 35%; half-life [3]: 0.5 h
CCCN(CCC)c1ccc(-c2c[nH]c(-c3ccc(/C=C/COCC)cc3)n2)cc1 | 280 | –
CCOC/C=C/c1ccc(-c2nc(-c3ccc(N(CC)CC)cc3)c(-c3ccc(N(CC)CC)cc3)[nH]2)cc1 | 260 | –
CCCCN(CCCC)c1ccc(-c2[nH]c(-c3ccc(/C=C/C(=O)OC)cc3)nc2-c2ccc(NC)cc2)cc1 | 2100 | –
CCOC/C=C/c1ccc(-c2nc(-c3ccc(NC(C)C)cc3)c(-c3ccc(NC)cc3)[nH]2)cc1 | 50 | bioavailability [4]: 36%; half-life [3]: 1.35 h
CCOC/C=C/c1ccc(-c2nc(-c3ccc(NC)cc3)c(-c3ccc(N4CCCC4)cc3)[nH]2)cc1 | 150 | –
CCOC/C=C/c1ccc(-c2nc(-c3ccc(NCC(C)C)cc3)c[nH]2)cc1 | 250 | –
CCN(CC)c1ccc(-c2nc(-c3ccc(/C=C/C(=O)OC)cc3)[nH]c2-c2ccc(N(CC)CC)cc2)cc1 | 570 | –
CCN(CC)c1ccc(-c2[nH]c(-c3ccc(/C=C/C(=O)OC)cc3)nc2-c2ccc(NC)cc2)cc1 | 70 | –
CCOCC/C=C/c1ccc(-c2nc(-c3ccc(NC)cc3)c(-c3ccc(N(CC)CC)cc3)[nH]2)cc1 | 60 | –
CCOC/C=C/c1ccc(-c2nc(-c3ccc(F)cc3)c(-c3ccc(NC(C)C)cc3)[nH]2)cc1 | 160 | bioavailability [4]: 45%; half-life [3]: 1.27 h
CCOC/C=C/c1ccc(-c2nc(-c3ccc(NC(C)C)cc3)c[nH]2)cc1 | 340 | –
CCOC/C=C/c1ccc(-c2nc(-c3ccc(N4CCOCC4)cc3)c[nH]2)cc1 | 370 | –
CCOC/C=C/c1ccc(-c2nc(-c3ccc(N4CCOCC4)cc3)c(-c3ccc(N4CCOCC4)cc3)[nH]2)cc1 | 220 | –
COC(=O)/C=C/c1ccc(-c2nc(-c3ccc(N(C)C)cc3)c(-c3ccc(N(C)C)cc3)[nH]2)cc1 | 300 | –

More lines, in order of falling EC50 [1], values ahead:

EC50 [1] [nM] | Structure (SMILES) | other results
5500 | C=CCN(CC=C)c1ccc(-c2nc(-c3ccc(/C=C/C(=O)OC)cc3)[nH]c2-c2ccc(N(CC=C)CC=C)cc2)cc1 | –
590 | COC(=O)/C=C/c1ccc(-c2nc(-c3ccc(N)cc3)c(-c3ccc(N(C)C)cc3)[nH]2)cc1 | –
370 | COC(=O)/C=C/c1ccc(-c2nc(-c3ccc(N4CCCC4)cc3)c(-c3ccc(N4CCCC4)cc3)[nH]2)cc1 | –
310 | CCN(CC)c1ccc(-c2[nH]c(-c3ccc(/C=C/C(=O)OC)cc3)nc2-c2ccc(N)cc2)cc1 | –
300 | CCOC/C=C/c1ccc(-c2nc(-c3ccc(N(CC)CC)cc3)c[nH]2)cc1 | –
200 | CNc1ccc(-c2nc(-c3ccc(/C=C/C(=O)OC)cc3)[nH]c2-c2ccc(NC)cc2)cc1 | –
120 | CNc1ccc(-c2[nH]c(-c3ccc(/C=C/C(=O)OC)cc3)nc2-c2ccc(NC(C)C)cc2)cc1 | –
110 | CNc1ccc(-c2[nH]c(-c3ccc(/C=C/CCOC)cc3)nc2-c2ccc(N(C)C)cc2)cc1 | –
50 | CCOC/C=C/c1ccc(-c2nc(-c3ccc(NC(C)C)cc3)c(-c3ccc(NC(C)C)cc3)[nH]2)cc1 | bioavailability [4]: 41%; half-life [3]: 2.79 h; Concentration [5]: 3 µM
50 | CCNc1ccc(-c2[nH]c(-c3ccc(/C=C/COCC)cc3)nc2-c2ccc(NC(C)C)cc2)cc1 | –
